Reference: the supplement of paper PMC11451515

Columns and labels:
Conditions in all cases: 48 h
[1] = test system: P12-Ichikawa; assay: AUC of viability dose-response curve (% viability x log10 dose units); higher = less sensitive
Outline: (§1)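 Leukemia cells adapted to each medium were seeded at 500 or 1000 cells/well in 1536-well plates and dosed with library compounds in DMSO at 11 threefold doses from 47 μM to 0.79 nM for 48 h at 37°C. CellTiter-Glo One luminescence was normalised per plate to DMSO and cell-free wells, then fitted with a four-parameter log-logistic model over log10 doses. Area under the curve was taken from this fit by the trapezoidal rule, with curves above full viability scaled and curves failing quality control removed.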

[2] = test system: SEM cells; assay: as above
Outline: as §1

[3] = test system: NOMO1; assay: as above
Outline: as §1

[4] = test system: SEM cells; assay: cell viability relative to DMSO control; higher = less cytotoxic
Outline: (§2)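 NOMO1, SEM and P12-Ichikawa leukemia cells spent at least four passages adapting to each medium before use. They were seeded at 500 cells/well (NOMO1, SEM) or 1000 cells/well (P12-Ichikawa) in 5 μl in 1536-well plates and pin-dosed with library compounds in DMSO at 11 threefold steps from 47 μM down to 0.79 nM. After 48 h at 37°C, CellTiter-Glo One luminescence was read. Viability is reported as a percentage of the DMSO wells on each plate, with cell-free wells as background.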

[5] = test system: P12-Ichikawa; assay: as above
Outline: as §2

[6] = test system: NOMO1; assay: as above
Outline: as §2

COC1=C(OCCCN2CCOCC2)C=C3N=CC=C(OC4=CC=C(C=C4F)\C5=C\N=C(\NC6=CC=C(F)C=C6)N(C)C5=O)C3=C1
AUC of viability dose-response curve
Conditions | [1] | [2] | [3]
HPLM + 10% dialyzed FBS | 447 | 282 | 441
RPMI 5 mM glucose + 10% FBS | 448 | 297 | 447
RPMI 5 mM glucose + 10% dialyzed FBS | 445 | 258 | 429

cell viability [%], [4]
Conditions | HPLM + 10% dialyzed FBS | RPMI 5 mM glucose + 10% FBS | RPMI 5 mM glucose + 10% dialyzed FBS
0.000781 µM | 110 | 103 | 110
0.00234 µM | 112 | 108 | 116
0.00702 µM | 110 | 113 | 103
0.0211 µM | 91.7 | 81.2 | 77.9
0.0632 µM | 68.9 | 79.4 | 73.8
0.19 µM | 57.7 | 65.2 | 52
0.569 µM | 59 | 46.7 | 45.9
1.71 µM | 52.4 | 56.5 | 44
5.12 µM | 47.8 | 52.6 | 43
15.4 µM | 40.7 | 37.6 | 34.8
46.1 µM | 5.64 | 1.97 | 3.15

ClC/1=C(NCCN2CCOCC2)/C(=O)C3=C(C=CC=N3)C1=O
AUC of viability dose-response curve
Conditions | [1] | [2] | [3]
HPLM + 10% dialyzed FBS | 450 | 410 | 416
RPMI 5 mM glucose + 10% FBS | 445 | 381 | 410
RPMI 5 mM glucose + 10% dialyzed FBS | 438 | 392 | 406

[4], HPLM + 10% dialyzed FBS
Conditions | cell viability [%]
0.000781 µM | 104
0.00234 µM | 105
0.00702 µM | 121
0.0211 µM | 118
0.0632 µM | 131
0.19 µM | 127
0.569 µM | 127
1.71 µM | 115
5.12 µM | 95.4
15.4 µM | 35.8
46.1 µM | 4.66

Cc1cccc(Nc2ccncc2[S+](=O)([O-])NC(=O)NC(C)C)c1
AUC of viability dose-response curve
Conditions | [1] | [2] | [3]
HPLM + 10% dialyzed FBS | 450 | 409 | 442
RPMI 5 mM glucose + 10% FBS | 457 | 457 | 412
RPMI 5 mM glucose + 10% dialyzed FBS | 425 | 459 | 415

cell viability [%]
Conditions | [4] | [5] | [6]
HPLM + 10% dialyzed FBS, 0.000781 µM | 80.2 | 102 | 105
HPLM + 10% dialyzed FBS, 0.00234 µM | 82.6 | 97.6 | 103
HPLM + 10% dialyzed FBS, 0.00702 µM | 88 | 100 | 100
HPLM + 10% dialyzed FBS, 0.0211 µM | 92.4 | 93.8 | 85.6
HPLM + 10% dialyzed FBS, 0.0632 µM | 85.7 | 101 | 112
HPLM + 10% dialyzed FBS, 0.19 µM | 95.1 | 96.7 | 105
HPLM + 10% dialyzed FBS, 0.569 µM | 98.6 | 93 | 103
HPLM + 10% dialyzed FBS, 1.71 µM | 85.6 | 90 | 87.3
HPLM + 10% dialyzed FBS, 5.12 µM | 75.5 | 91.3 | 80.9
HPLM + 10% dialyzed FBS, 15.4 µM | 84.4 | 85.8 | 89.3
HPLM + 10% dialyzed FBS, 46.1 µM | 72.3 | 83.1 | 56
RPMI 5 mM glucose + 10% FBS, 0.000781 µM | 103 | 94.9 | 95.6
RPMI 5 mM glucose + 10% FBS, 0.00234 µM | 94.6 | 95.5 | 89.6
RPMI 5 mM glucose + 10% FBS, 0.00702 µM | 83.8 | 95.4 | 96.4
RPMI 5 mM glucose + 10% FBS, 0.0211 µM | 102 | 94.2 | 88.9
RPMI 5 mM glucose + 10% FBS, 0.0632 µM | 96.2 | 104 | 83
RPMI 5 mM glucose + 10% FBS, 0.19 µM | 97.9 | 104 | 84.8
RPMI 5 mM glucose + 10% FBS, 0.569 µM | 111 | 98.2 | 89.4
RPMI 5 mM glucose + 10% FBS, 1.71 µM | 87.7 | 94.1 | 89.1
RPMI 5 mM glucose + 10% FBS, 5.12 µM | 90.4 | 96.8 | 79.2
RPMI 5 mM glucose + 10% FBS, 15.4 µM | 95.3 | 86.4 | 82.3
RPMI 5 mM glucose + 10% FBS, 46.1 µM | 88.5 | 86.6 | 72.4
RPMI 5 mM glucose + 10% dialyzed FBS, 0.000781 µM | 89.7 | 86.1 | 89.1
RPMI 5 mM glucose + 10% dialyzed FBS, 0.00234 µM | 104 | 89.3 | 91.4
RPMI 5 mM glucose + 10% dialyzed FBS, 0.00702 µM | 110 | 93.1 | 81.1
RPMI 5 mM glucose + 10% dialyzed FBS, 0.0211 µM | 94.4 | 90 | 94.1
RPMI 5 mM glucose + 10% dialyzed FBS, 0.0632 µM | 106 | 91.9 | 93.6
RPMI 5 mM glucose + 10% dialyzed FBS, 0.19 µM | 111 | 97.2 | 92.6
RPMI 5 mM glucose + 10% dialyzed FBS, 0.569 µM | 101 | 90 | 85.5
RPMI 5 mM glucose + 10% dialyzed FBS, 1.71 µM | 95.7 | 87.3 | 89.3
RPMI 5 mM glucose + 10% dialyzed FBS, 5.12 µM | 83.8 | 88 | 83.5
RPMI 5 mM glucose + 10% dialyzed FBS, 15.4 µM | 101 | 85.5 | 81
RPMI 5 mM glucose + 10% dialyzed FBS, 46.1 µM | 84.5 | 76.1 | 65.8
